This passage reports IC50 results from BindingDB's records for patent US12258317 (Sunshine Lake Pharma Co., 2025).

In test [1] the target is T1, Amine oxidase [copper-containing] 3 (Homo sapiens, UniProt Q16853).
T1 sequence (Q16853 whole entry): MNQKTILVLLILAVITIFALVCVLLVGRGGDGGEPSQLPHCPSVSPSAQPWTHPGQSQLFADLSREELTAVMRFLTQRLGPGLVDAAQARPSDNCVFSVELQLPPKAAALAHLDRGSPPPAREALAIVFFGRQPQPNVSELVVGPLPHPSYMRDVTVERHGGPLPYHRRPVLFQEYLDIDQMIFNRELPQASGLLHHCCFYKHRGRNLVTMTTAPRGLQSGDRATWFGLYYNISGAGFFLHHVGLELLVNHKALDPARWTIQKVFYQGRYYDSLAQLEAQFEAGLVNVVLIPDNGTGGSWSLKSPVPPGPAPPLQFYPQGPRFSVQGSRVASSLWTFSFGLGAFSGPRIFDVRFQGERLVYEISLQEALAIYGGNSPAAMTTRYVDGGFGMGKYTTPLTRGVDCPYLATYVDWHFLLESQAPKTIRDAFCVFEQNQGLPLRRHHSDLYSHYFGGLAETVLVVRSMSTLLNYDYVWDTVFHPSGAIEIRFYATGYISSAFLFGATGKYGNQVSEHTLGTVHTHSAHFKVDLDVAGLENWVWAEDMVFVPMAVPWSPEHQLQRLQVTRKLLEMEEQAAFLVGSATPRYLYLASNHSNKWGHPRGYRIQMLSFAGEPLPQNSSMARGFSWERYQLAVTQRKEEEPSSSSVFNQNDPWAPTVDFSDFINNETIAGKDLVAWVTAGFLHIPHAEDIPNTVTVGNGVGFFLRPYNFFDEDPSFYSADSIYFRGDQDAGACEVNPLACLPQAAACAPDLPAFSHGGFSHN
Nature of the test: Inhibitory Activity of Human Recombinant SSAO/VAP-1. From the text: Test purpose: The following method is used to determine the inhibitory activity of the compounds in the examples of the present invention on human recombinant SSAO/VAP-1.Test Materials:Human recombinant SSAO/VAP-1 (VAP-1, human) was purchased from Sigma, Cat. No. SRP6241;Amplex Red Monoamine Oxidase Assay Kit was purchased from Invitrogen, Cat. No. A12214;384-well plate was purchased from Corning, Cat. No. 6005174;Amplex Red Hydrogen PeroxidePeroxidase Assay Kit was purchased from Invitrogen, Cat. No. A22188.Benzylamine hydrochloride was purchased from Sigma, Cat. No. B5136-25G;DMSO (Dimethyl Sulfoxide) was purchased from Sigma, Cat. No. D2650-100ML;Test Method:The test compound was dissolved in DMSO and diluted 4 times to a total of 10 concentrations. In a 384-well plate, 25 μL of human recombinant SSAO/VAP-1 (1.6 μg/mL) was added into each well. 100 nL of test compounds at different concentrations were added to each well containing human recombinant SSAO/VAP-1, and the plate was incubated at room temperature for 30 min. […] After 60 min, PerkinElmer's Envision was used to read the fluorescence value (RFU) under excitation at 530-560 nm and emission at 590 nm.

Test [2] deals with T2, Diamine oxidase [copper-containing] (Homo sapiens, UniProt P19801).
T2 construct: gene AOC1
T2 sequence (P19801 20-751 limits assumed): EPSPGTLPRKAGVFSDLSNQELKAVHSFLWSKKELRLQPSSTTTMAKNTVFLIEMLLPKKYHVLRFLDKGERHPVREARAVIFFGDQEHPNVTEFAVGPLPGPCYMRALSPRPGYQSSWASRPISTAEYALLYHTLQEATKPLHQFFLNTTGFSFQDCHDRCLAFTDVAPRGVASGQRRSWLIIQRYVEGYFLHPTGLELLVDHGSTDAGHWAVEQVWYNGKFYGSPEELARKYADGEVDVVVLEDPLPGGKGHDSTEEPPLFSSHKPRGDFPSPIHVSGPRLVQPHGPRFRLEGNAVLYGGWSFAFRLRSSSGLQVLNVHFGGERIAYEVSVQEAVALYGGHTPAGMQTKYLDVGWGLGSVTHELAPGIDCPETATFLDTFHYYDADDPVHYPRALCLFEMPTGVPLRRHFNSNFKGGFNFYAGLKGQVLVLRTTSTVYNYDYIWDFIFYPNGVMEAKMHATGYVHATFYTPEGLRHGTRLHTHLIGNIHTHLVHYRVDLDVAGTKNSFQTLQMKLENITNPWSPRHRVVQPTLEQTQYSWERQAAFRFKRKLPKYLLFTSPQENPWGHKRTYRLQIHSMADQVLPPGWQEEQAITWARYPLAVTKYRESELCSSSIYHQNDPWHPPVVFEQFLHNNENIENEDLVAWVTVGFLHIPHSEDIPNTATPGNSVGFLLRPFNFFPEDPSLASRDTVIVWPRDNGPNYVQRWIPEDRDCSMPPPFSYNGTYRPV
Nature of the test: Inhibition of DAO (Diamine Oxidase). The protocol: Test purpose: The following method is used to determine the selective inhibitory activity of the compound of the present invention on DAO.Test Materials:Human recombinant DAO (Recombinant Human ABP-1/DAO) was purchased from R&D, Cat. No. 8298-AO;Amplex Red Hydrogen PeroxidePeroxidase Assay Kit was purchased from Invitrogen, Cat. No. A22188;1,4-Diaminobutane dihydrochloride was purchased from Aladdin, Cat. No. D106194-25G.Test Method:The test compound was dissolved in DMSO and diluted 5 times to a total of 6 concentrations. In a 384-well plate, 24 μL of human recombinant DAO (1 μg/mL) was added into each well. 1 μL of test compounds at different concentrations were added to each well containing human recombinant DAO, and the plate was incubated at 37° C. for 30 min. After incubating for 30 min, 25 μL of Amplex Red Hydrogen Peroxide Peroxidase Assay Kit (containing 100 μM Amplex Red and 0.2 U/ml HRP) containing 1 M 1,4-butanediamine dihydrochloride was added into the corresponding wells, and the plate was incubated in the dark at 37° C. for 30 min. After 30 min, PHERAstar FSX microplate reader of BMG LABTECH was used to read the fluorescence value (RFU) under excitation at 540 nm and emission at 580 nm.

Where only a bound is given, the exact number is not on record here.

For the compound `NC/C(=C/F)COc1ccc2c(c1)CCN(CC(N)=O)C2=O` [US12258317, Example 2], in test [1], the IC50 stood at 2.2 nM.

Take `NC/C(=C\F)COc1ccc2c(c1)CCN(CC(N)=O)C2=O` [US12258317, Example 1]: the IC50 in test [1] is 6.29 nM; in test [2] it was over 1000 nM.
